# From ChEMBL document CHEMBL1122556, “Design, synthesis, and binding characteristics of an opiate receptor mimetic peptide” (J Med Chem, 1984)
# Residues, ends and D or L forms follow the SMILES beside them. *: point of attachment. Desaminotyrosyl = O=C(CCc1ccc(O)cc1)*; Hydrocinnamoyl = O=C(CCc1ccccc1)*
# Assay: Compound was evaluated for the binding strength to receptor Mimetic peptide (RMP) at 5 degree celsius, Ki was determined from its potency in displacing [Leu]-enkephalin binding.
row,Structure (SMILES),Ki [µM]
1,CSCC[C@H](NC(=O)[C@H](Cc1ccccc1)NC(=O)CNC(=O)CNC(=O)[C@@H](N)Cc1ccc(O)cc1)C(=O)O,49.5
2,CC(C)C[C@H](NC(=O)[C@H](Cc1ccccc1)NC(=O)CNC(=O)CNC(=O)[C@H](N)Cc1ccccc1)C(=O)O,95.5
3,CC(C)C[C@@H](NC(=O)[C@@H](Cc1ccccc1)NC(=O)CNC(=O)CNC(=O)[C@H](N)Cc1ccc(O)cc1)C(=O)O,400
4,CC(C)C[C@H](NC(=O)[C@H](Cc1ccccc1)NC(=O)CNC(=O)[C@@H](N)Cc1ccc(O)cc1)C(=O)O,160
5,N=C(N)NCCC[C@H](NC(=O)[C@H](Cc1ccccc1)NC(=O)[C@@H](N)Cc1cnc[nH]1)C(=O)N[C@@H](Cc1c[nH]c2ccccc12)C(=O)O,5950
6,CC(C)C[C@H](NC(=O)[C@H](Cc1ccccc1)NC(=O)CNC(=O)CNC(=O)CCc1ccc(O)cc1)C(=O)O (Desaminotyrosyl-GGFL-OH),205
7,CC(C)C[C@H](NC(=O)[C@H](Cc1ccccc1)NC(=O)CNC(=O)CNC(=O)CCc1ccccc1)C(=O)O (Hydrocinnamoyl-GGFL-OH),620
8,C=CCN1CC[C@]23c4c5ccc(O)c4O[C@H]2C(=O)CC[C@@]3(O)[C@H]1C5 [NALOXONE],7460
